Source: patent publication US7935708B2, “Dihydropyrazolopyrimidinone derivatives” (MSD K.K., priority 2006, dated 2011)

Legend:
[1] = test system: Cdc2 (Cdk1) tyrosine 15 phosphorylation in NCI-H1299 cells; test: Cdc2 (Cdk1) tyrosine 15-phosphorylation-inhibitory effect in camptothecin-treated NCI-H1299 cells (ELISA); assay type: cell-based; conditions: Homo sapiens, camptothecin 200 nM 16 hours, then test compound with nocodazole 8 hours, read-out: Cdc2-Y15 Phosphorylation-Inhibitory Effect (H1299, + camptothecin) (EC50)
Source text: Pharmaceutical Text 2 (Method of Determining Drug Potency in Cells (Cdc2 (Cdk1) Tyrosine 15-Phosphorylation-Inhibitory Effect))
Fetal bovine serum (FBS) was obtained from Morgate; media RPMI1640 and DMEM were from Invitrogen; camptothecin was from Sigma; gemcitabine was from Nippon Eli Lilly; nocodazole and protease inhibitor cocktail were from Sigma; rabbit anti-Cdc2 antibody and mouse anti-Cdc2 antibody were from Santa Cruz Biotechnology; rabbit anti-tyrosine 15-phosphorylated Cdc2 antibody and horseradish peroxidase-labeled anti-mouse IgG antibody were from Cell Signaling Technology; sure blue reserve TMB peroxidase substrate was from Kirkegaard and Perry Laboratories.
Human non-small cell lung cancer cells (NCI-H1299) and human colon cancer cells (WiDr) were obtained from American Type Culture Collection (ATCC).
(§1) c) Method of Effect Determination:
In the method of using NCI-H1299 cells, the cells were suspended in RPMI1640 containing 10% FBS, and the cell suspension was applied to a 96-well Nunclondelta-processed plastic plate (bought from Nunc), in an amount of 2000 cells/100 μL/well, in which the cells were incubated overnight in 5% CO2-95% air at 37° C. Camptothecin was dissolved in dimethylsulfoxide (DMSO), and diluted with RPMI1640 containing 10% FBS, and then this was applied to the plate on which the cells had been previously sowed, in an amount of 50 μL/well in such a manner that the final concentration of camptothecin could be 200 nM. Then, the cells were incubated for 16 hours at 37° C. in 5% CO2-95% air. The test compound was stepwise diluted with DMSO, then diluted with 4000 nM nocodazole-containing RPMI1640 containing 10% FBS, and applied to the plate on which the camptothecin-treated cells had been sowed, in an amount of 50 μL/well. The cells were incubated for 8 hours at 37° C. in 5% CO2-95% air, then the medium was removed, and a cytolytic buffer was added to the plate in an amount of 100 μL/well, shaken at 4° C. for 2 hours, then frozen at −80° C., and melted to give a cell solution. Cdc2 and tyrosine 15-phosphorylated Cdc2 in the cell solution were determined through enzyme-linked immunosorbent assay (ELISA), and the ratio of tyrosine 15-phosphorylated Cdc2 to Cdc2 was calculated to obtain the 50% phosphorylation-inhibitory concentration of the test compound to the cells (EC50, nM). The cytolytic buffer used herein is an aqueous solution containing 20 mM Hepes (pH 7.5), 150 mM sodium chloride, 1 mM disodium ethylenediaminetetraacetate, 0.1% polyoxyethylene (10) octylphenyl ether, 1% protease inhibitor cocktail, 1 mM dithiothreitol, 2 mM sodium orthovanadate, 10 mM sodium fluoride and 10 mM glycerol diphosphate. Cdc2 was determined through ELISA as follows: A rabbit anti-Cdc2 antibody solution, which had been diluted 200-fold with 50 mM carbonate-bicarbonate buffer (pH 9.6), was applied to a 96-well maxisorpimmuno plate (bought from Nunc), in an amount of 50 μL/well, and statically kept overnight at 4° C. so as to fix the antibody on the plate. Next, this was washed three times with phosphate-buffered saline (PBS), and 5% bovine serum albumin-containing PBS (5% BSA/PBS) was added thereto in an amount of 300 μL/well, and statically kept at room temperature for 2 hours, and then again washed three times with PBS. A mouse anti-Cdc2 antibody solution that had been diluted 100-fold with 0.05% polyoxyethylene sorbitan monolaurate and 1% BSA-containing Tris-HCl-buffered saline (1% BSA/TBS-T) was added to it in an amount of 50 μL/well, and the cell solution was added thereto in an amount of 5 μL/well and statically kept overnight at 4° C. Next, this was washed three times with 0.05% polyoxyethylene sorbitan monolaurate and 0.1% BSA-containing Tris-HCl-buffered saline (0.1% BSA/TBS-T), and then a horseradish peroxidase-labeled anti-mouse IgG antibody solution that had been diluted 2000-fold with 1% BSA/TBS-T was added thereto in an amount of 70 μL/well, and statically kept at room temperature for 3 hours. […]

[2] = test system: Human colon cancer cells (WiDr); test: Checkpoint escape effect in gemcitabine-treated WiDr cells (phosphorylated histone H3-positive cells); assay type: cell-based; conditions: gemcitabine 100 nM 24 hours, then test compound with nocodazole 8 hours
Source text: Pharmaceutical Text 3 (Method of Determining Drug Potency in Cells (Checkpoint-Removing Effect))
Fetal bovine serum (FBS) was obtained from Morgate; DMEM was from Invitrogen; gemcitabine was from Nippon Eli Lilly; nocodazole and 4′,6-diamidino-2-phenylindole were from Sigma; rabbit anti-phosphorylated histone H3 antibody was from Upstate; and fluorescence-labeled (Alexa Fluor 488) anti-rabbit IgG antibody was from Molecular Probe.
Human colon cancer cells (WiDr) were obtained from American Type Culture Collection (ATCC).
as §1
The cells were suspended in DMEM containing 10% FBS, and the cell suspension was applied to a poly-D-lysine-coated 96-well plastic plate (bought from Becton Dickinson) in an amount of 2000 cells/100 μL/well, in which the cells were incubated overnight in 5% CO2-95% air at 37° C. Gemcitabine was dissolved in phosphate-buffered saline (PBS), and diluted with DMEM containing 10% FBS, and then this was applied to the plate on which the cells had been previously sowed, in an amount of 50 μL/well in such a manner that the final concentration of gemcitabine could be 100 nM. Then, the cells were incubated for 24 hours at 37° C. in 5% CO2-95% air. The test compound was stepwise diluted with dimethylsulfoxide, then diluted with 1200 nM nocodazole-containing DMEM containing 10% FBS, and applied to the plate on which the gemcitabine-treated cells had been sowed, in an amount of 50 μL/well. […] Next, this was washed with PBS, and a solution containing 4′,6-diamidino-2-phenylindole that had been diluted with 1% BSA/PBS to have a concentration 10 μg/mL and a fluorescence-labeled (Alexa Fluor 488) anti-rabbit IgG antibody that had been diluted 250-fold was added to it in an amount 50 μL/well, and reacted in a dark place at room temperature for 60 minutes. Finally, this was washed with PBS, and its fluorescence intensity was determined to calculate the ratio of the phosphorylated histone H3-positive cells (cells that had been in a cell division cycle through removal of checkpoint). […]

[3] = test system: Human colon cancer cells WiDr; test: Tumor growth-inhibitory effect, WiDr implanted subcutaneously in nude rats; assay type: in vivo, F344/N Jcl-mu nude rats; conditions: statement on Table 5
Method: Pharmaceutical Test 4 (Tumor Growth-Inhibitory Effect)
Human colon cancer cells WiDr (gotten from ATCC) were implanted into the subcutaneous area of the back of F344/N Jcl-mu nude rats. Eight days after the implantation, gemcitabine (50 mg/kg, Gemzar injection, Eli-Lilly) was intravenously administered to them; and after 24 hours, a test compound was dissolved in a solvent (5% glucose) and given to them through continuous intravenous injection for 8 hours. The tumor volume (0.5×(major diameter)×(minor diameter)^2) was determined on day 0, 3, 6, 10 and 13. Day 0 means the day on which gemcitabine was administered. The relative tumor volume is a relative value, as calculated on the basis of the tumor volume of 1 on day 0. The tumor growth percentage (% T/C) was obtained according to the following formula:
When the tumor volume change from day 0 in the group subjected to test compound administration is more than 0 (>0): % T/C=[(tumor volume change in the test compounds on day 3, 6, 10, 13)/(tumor volume change in the control on day 3, 6, 10, 13)]×100. When the tumor volume change from day 0 in the group subjected to test compound administration is less than 0 (<0): % T/C=[(tumor volume change in the test compounds on day 3, 6, 10, 13)/(tumor volume […])]×100.

Compound | EC50 [1] | EC50 [2] | tumor growth percentage (in words) [3]
CC(C)n1c(=O)c2cnc(Nc3ccc(C4CCN(C)CC4)cc3)nc2n1-c1cccc(C(C)(C)O)n1 [Example 147, 1-[6-(1-hydroxy-1-methylethyl)pyridin-2-yl]-2-isopropyl-6-{[4-(1-methylpiperidin-4-yl)phenyl]amino}-1,2-dihydro-3H-pyrazolo[3,4-d]pyrimidin-3-one] | 100 nM | 110 nM | –
Nc1ccn([C@@H]2O[C@H](CO)[C@@H](O)C2(F)F)c(=O)n1 [Gemcitabine, gemcitabine] | – | – | reduced the tumor growth percentage
